Results taken from patent US10160771B2, “Hepatitis C virus inhibitors and uses thereof in preparation of drugs” (priority 2014, dated 2018).

What was measured:
[1] = Cell Titer-fluor cell activity assay in HCV-1b replicon cells (CC50); type: cell-based
In short: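 Con1 genotype 1b replicon cells (E1202G, T1280I, K1846T adaptive mutations), 8000 cells/well, exposed to 6-point 5-fold dilutions from 100, 10 or 1 nM top concentration in 0.5% DMSO, duplicate wells, 3 days at 37 °C. Viability read by Cell Titer-fluor (Ex 405/Em 515 nm) after 30 min; CC50 from nonlinear fit of inhibition %.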

[2] = tested on: HCV genotype 1b (HCV-1b) replicon cells; experiment: HCV genotype 1b replicon luciferase assay (EC50); type: cell-based, hepatitis C virus genotype 1b (Con1 clone); details: Hepatitis C virus, 72 h, 3 days, luciferase (Bright-Glo)
In short: (§1)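 Stable subgenomic replicon cells (1a: H77 with K1691R, K2040R, S2204I; 1b: Con1 with E1202G, T1280I, K1846T) carrying luciferase and neo were seeded at 8000 cells/well onto compounds (5-fold, 6-point, top 100, 10 or 1 nM; 0.5% DMSO) for 3 days at 37 °C. Bright-Glo luminescence gave EC50 by nonlinear fit.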

[3] = tested on: HCV genotype 1a (HCV-1a) replicon cells; experiment: HCV genotype 1a replicon luciferase assay (EC50); type: cell-based, hepatitis C virus genotype 1a (H77 clone); details: Hepatitis C virus, 72 h, 3 days, luciferase (Bright-Glo)
In short: as §1

| SMILES | CC50 at 3 days [1] [nM] | EC50 [2] [nM] | EC50 [3] [nM] |
| --- | --- | --- | --- |
| COC(=O)N[C@H](C(=O)N1CCC[C@H]1c1ncc(-c2ccc(-c3ccc(-c4cnc([C@H]5C6CCC(C6)[C@@H]5C(=O)NCc5cccs5)[nH]4)cc3)cc2)[nH]1)C(C)C (stereo partly drawn) [AA_196_A] | > 1 | 0.001 to 0.1 | 1 to 10 |
| COC(=O)N[C@H](C(=O)N1CCC[C@H]1c1ncc(-c2ccc(-c3ccc(-c4cnc([C@@H]5C6CCC(C6)[C@H]5C(=O)NCc5cccs5)[nH]4)cc3)cc2)[nH]1)C(C)C (stereo partly drawn) [AA_196_B] | > 1 | 0.001 to 0.1 | 10 to 100 |
| COC(=O)N[C@H](C(=O)N1CCC[C@H]1c1ncc(-c2ccc(-c3ccc(-c4cnc([C@H]5C6CCC(C6)[C@@H]5C(=O)NCc5cccnc5)[nH]4)cc3)c(F)c2)[nH]1)C(C)C (stereo partly drawn) [AA_197_A] | > 1 | 0.001 to 0.1 | 1 to 10 |
| COC(=O)N[C@H](C(=O)N1CCC[C@H]1c1ncc(-c2ccc(-c3ccc(-c4cnc([C@H]5C6CCC(C6)[C@@H]5C(=O)NCc5ccco5)[nH]4)cc3)cc2)[nH]1)C(C)C (stereo partly drawn) [AA_198_A] | > 1 | 0.001 to 0.1 | 1 to 10 |
| COC(=O)N[C@H](C(=O)N1CCC[C@H]1c1ncc(-c2ccc(-c3ccc(-c4cnc([C@@H]5C6CCC(C6)[C@H]5C(=O)NCc5ccco5)[nH]4)cc3)cc2)[nH]1)C(C)C (stereo partly drawn) [AA_198_B] | > 1 | 0.001 to 0.1 | 10 to 100 |
| COC(=O)N[C@H](C(=O)N1CCC[C@H]1c1ncc(-c2ccc(-c3ccc(-c4cnc([C@H]5C6CCC(C6)[C@@H]5C(=O)NCc5cccc(N)c5)[nH]4)cc3)cc2)[nH]1)C(C)C (stereo partly drawn) [AA_199_A] | > 1 | 0.001 to 0.1 | 1 to 10 |
| COC(=O)N[C@H](C(=O)N1CCC[C@H]1c1ncc(-c2ccc(-c3ccc(-c4cnc([C@@H]5C6CCC(C6)[C@H]5C(=O)NCc5cccc(N)c5)[nH]4)cc3)cc2)[nH]1)C(C)C (stereo partly drawn) [AA_199_B] | > 1 | 0.001 to 0.1 | 10 to 100 |
| COC(=O)N[C@H](C(=O)N1CCC[C@H]1c1ncc(-c2ccc(-c3ccc(-c4cnc([C@H]5C6CCC(C6)[C@@H]5C(=O)NCc5ccc(OC)nc5)[nH]4)cc3)cc2)[nH]1)C(C)C (stereo partly drawn) [AA_200_A] | > 1 | 0.001 to 0.1 | 1 to 10 |
| COC(=O)N[C@H](C(=O)N1CCC[C@H]1c1ncc(-c2ccc(-c3ccc(-c4cnc([C@@H]5C6CCC(C6)[C@H]5C(=O)NCc5ccc(OC)nc5)[nH]4)cc3)cc2)[nH]1)C(C)C (stereo partly drawn) [AA_200_B] | > 1 | 0.001 to 0.1 | 1 to 10 |
| COC(=O)N[C@H](C(=O)N1CCC[C@H]1c1ncc(-c2ccc(-c3ccc(-c4cnc([C@H]5C6CCC(C6)[C@@H]5C(=O)NCc5cncnc5)[nH]4)cc3)cc2)[nH]1)C(C)C (stereo partly drawn) [AA_201_A] | > 1 | 0.001 to 0.1 | 0.101 to 1 |
| COC(=O)N[C@H](C(=O)N1CCC[C@H]1c1ncc(-c2ccc(-c3ccc(-c4cnc([C@@H]5C6CCC(C6)[C@H]5C(=O)NCc5cncnc5)[nH]4)cc3)cc2)[nH]1)C(C)C (stereo partly drawn) [AA_201_B] | > 1 | 0.001 to 0.1 | 1 to 10 |
| COC(=O)N[C@H](C(=O)N1CCC[C@H]1c1ncc(-c2ccc(-c3ccc(-c4cnc([C@@H]5[C@H]6CC[C@H](C6)[C@H]5C(=O)NCc5cncnc5)[nH]4)cc3)cc2)[nH]1)C(C)C [AA_201_ENDOA2] | > 1 | 0.001 to 0.1 | 0.101 to 1 |
| COC(=O)N[C@H](C(=O)N1CCC[C@H]1c1ncc(-c2ccc(-c3ccc(-c4cnc([C@H]5C6CCC(C6)[C@@H]5C(=O)NCCc5ccccn5)[nH]4)cc3)cc2)[nH]1)C(C)C (stereo partly drawn) [AA_202] | > 1 | 0.001 to 0.1 | 1 to 10 |
| COC(=O)N[C@H](C(=O)N1CCC[C@H]1c1ncc(-c2ccc(-c3ccc(-c4cnc([C@H]5C6CCC(C6)[C@@H]5C(=O)NCc5cccnc5OC)[nH]4)cc3)cc2)[nH]1)C(C)C (stereo partly drawn) [AA_203_A] | > 1 | 0.001 to 0.1 | 1 to 10 |
| COC(=O)N[C@H](C(=O)N1CCC[C@H]1c1ncc(-c2ccc(-c3ccc(-c4cnc([C@@H]5C6CCC(C6)[C@H]5C(=O)NCc5cccnc5OC)[nH]4)cc3)cc2)[nH]1)C(C)C (stereo partly drawn) [AA_203_B] | > 1 | 0.001 to 0.1 | 1 to 10 |
| COC(=O)N[C@H](C(=O)N1CCC[C@H]1c1ncc(-c2ccc(-c3ccc(-c4cnc([C@@H]5C6CCC(C6)[C@H]5C(=O)NC(C)c5cccnc5)[nH]4)cc3)cc2)[nH]1)C(C)C (stereo partly drawn) [AA_204_B] | > 1 | 0.001 to 0.1 | 1 to 10 |
| COC(=O)N[C@H](C(=O)N1CCC[C@H]1c1ncc(-c2ccc(-c3ccc(-c4cnc([C@@H]5[C@H]6CC[C@H](C6)[C@H]5C(=O)N[C@@H](C)c5cccnc5)[nH]4)cc3)cc2)[nH]1)C(C)C [AA_204_ENDOA2_A] | > 1 | 0.001 to 0.1 | 0.001 to 0.1 |

| SMILES | CC50 at 3 days [1] [nM] | EC50 [2] [nM] | EC50 [3] [nM] |
| --- | --- | --- | --- |
| COC(=O)N[C@H](C(=O)N1CCC[C@H]1c1ncc(-c2ccc(-c3ccc(-c4cnc([C@@H]5[C@H]6CC[C@H](C6)[C@H]5C(=O)N[C@H](C)c5cccnc5)[nH]4)cc3)cc2)[nH]1)C(C)C [AA_204_ENDOA2_B] | > 1 | 0.001 to 0.1 | 1 to 10 |
| COC(=O)N[C@H](C(=O)N1CCC[C@H]1c1ncc(-c2ccc(-c3ccc(-c4cnc([C@H]5C6CCC(C6)[C@@H]5C(=O)NCc5cnccn5)[nH]4)cc3)cc2)[nH]1)C(C)C (stereo partly drawn) [AA_206_A] | > 1 | 0.001 to 0.1 | 0.101 to 1 |
| COC(=O)N[C@H](C(=O)N1CCC[C@H]1c1ncc(-c2ccc(-c3ccc(-c4cnc([C@@H]5C6CCC(C6)[C@H]5C(=O)NCc5cnccn5)[nH]4)cc3)cc2)[nH]1)C(C)C (stereo partly drawn) [AA_206_B] | > 1 | 0.001 to 0.1 | 1 to 10 |
| COC(=O)N[C@H](C(=O)N1CCC[C@H]1c1ncc(-c2ccc(-c3ccc(-c4cnc(C5[C@H]6CC[C@H](C6)[C@H]5C(=O)NCc5cnccn5)[nH]4)cc3)cc2)[nH]1)C(C)C (stereo partly drawn) [AA_206_ENDOA2] | > 1 | 0.001 to 0.1 | 0.101 to 1 |
| COC(=O)N[C@H](C(=O)N1CCC[C@H]1c1ncc(-c2ccc(-c3ccc(-c4cnc([C@H]5C6CCC(C6)[C@@H]5C(=O)NCc5ccccc5)[nH]4)cc3)cc2)[nH]1)C(C)C (stereo partly drawn) [AA_207_A] | > 1 | 0.001 to 0.1 | 1 to 10 |
| COC(=O)N[C@H](C(=O)N1CCC[C@H]1c1ncc(-c2ccc(-c3ccc(-c4cnc([C@@H]5C6CCC(C6)[C@H]5C(=O)NCc5ccccc5)[nH]4)cc3)cc2)[nH]1)C(C)C (stereo partly drawn) [AA_207_B] | > 1 | 0.001 to 0.1 | 10 to 100 |
| COC(=O)N[C@H](C(=O)N1CCC[C@H]1c1ncc(-c2ccc(-c3ccc(-c4cnc([C@H]5C6CCC(C6)[C@@H]5C(=O)NCc5nccs5)[nH]4)cc3)cc2)[nH]1)C(C)C (stereo partly drawn) [AA_208_A] | > 1 | 0.001 to 0.1 | 1 to 10 |
| COC(=O)N[C@H](C(=O)N1CCC[C@H]1c1ncc(-c2ccc(-c3ccc(-c4cnc([C@@H]5C6CCC(C6)[C@H]5C(=O)NCc5nccs5)[nH]4)cc3)cc2)[nH]1)C(C)C (stereo partly drawn) [AA_208_B] | > 1 | 0.001 to 0.1 | 1 to 10 |
| COC(=O)N[C@H](C(=O)N1CCC[C@H]1c1ncc(-c2ccc(-c3ccc(-c4cnc([C@@H]5[C@H]6CC[C@H](C6)[C@H]5C(=O)NCc5nccs5)[nH]4)cc3)cc2)[nH]1)C(C)C [AA_208_ENDOA2] | > 1 | 0.001 to 0.1 | 0.101 to 1 |
| COC(=O)N[C@H](C(=O)N1CCC[C@H]1c1ncc(-c2ccc(-c3ccc(-c4cnc([C@H]5C6CCC(C6)[C@@H]5C(=O)NCCc5ccncc5)[nH]4)cc3)cc2)[nH]1)C(C)C (stereo partly drawn) [AA_209_A] | > 1 | 0.001 to 0.1 | 10 to 100 |
| COC(=O)N[C@H](C(=O)N1CCC[C@H]1c1ncc(-c2ccc(-c3ccc(-c4cnc([C@@H]5C6CCC(C6)[C@H]5C(=O)NCCc5ccncc5)[nH]4)cc3)cc2)[nH]1)C(C)C (stereo partly drawn) [AA_209_B] | > 1 | 0.101 to 1 | 10 to 100 |
| COC(=O)N[C@H](C(=O)N1CCC[C@H]1c1ncc(-c2ccc(-c3ccc(-c4cnc([C@H]5C6CCC(C6)[C@@H]5C(=O)NCc5ccc(N)cc5)[nH]4)cc3)cc2)[nH]1)C(C)C (stereo partly drawn) [AA_210_A] | > 1 | 0.001 to 0.1 | 10 to 100 |
| COC(=O)N[C@H](C(=O)N1CCC[C@H]1c1ncc(-c2ccc(-c3ccc(-c4cnc([C@@H]5C6CCC(C6)[C@H]5C(=O)NCc5ccc(N)cc5)[nH]4)cc3)cc2)[nH]1)C(C)C (stereo partly drawn) [AA_210_B] | > 1 | 0.001 to 0.1 | 10 to 100 |
| COC(=O)N[C@H](C(=O)N1CCC[C@H]1c1ncc(-c2ccc(-c3ccc(-c4cnc([C@H]5C6CCC(C6)[C@@H]5C(=O)NCc5cccnc5)[nH]4)cc3)cc2C)[nH]1)C(C)C (stereo partly drawn) [AA_211_A] | > 1 | 0.001 to 0.1 | 1 to 10 |
| COC(=O)N[C@H](C(=O)N1CCC[C@H]1c1ncc(-c2ccc(-c3ccc(-c4cnc([C@@H]5C6CCC(C6)[C@H]5C(=O)NCc5cccnc5)[nH]4)cc3)cc2C)[nH]1)C(C)C (stereo partly drawn) [AA_211_B] | > 1 | 0.001 to 0.1 | 1 to 10 |
| CCOC(=O)C(NC(=O)[C@H]1C2CCC(C2)[C@@H]1c1ncc(-c2ccc(-c3ccc(-c4cnc([C@@H]5CCCN5C(=O)[C@@H](NC(=O)OC)C(C)C)[nH]4)cc3)cc2)[nH]1)c1cccnc1 (stereo partly drawn) [AA_213] | > 1 | 0.001 to 0.1 | 1 to 10 |
